Laboratory results reported in US20070021415A1, “Pharmaceutical composition for the prevention or treatment of cerebral oedemas” (priority 2005, published 2007).
Like-named read-outs stand apart in the source and are kept apart here.

Experiments:
[1] = test system: cerebral oedema induced by triethyl tin (TET) in the rat; conditions: in vivo
[2] = rat, in vivo; for weight gain (in words): po, 50 mg/kg/day
[3] = test system: cerebral oedema induced by triethyl tin (TET) chloride in the rat; conditions: administered during the intoxication with tin, measured after 5 days (Linee et al., 1984); cited from earlier work

Molecule	weight of the dried brain ([1]; po)	Variation in percentage ([1]; po, 50 mg/kg/day) [%]	weight gain (in words) [2]	activity in the preventive protocol [3]	further results
CC1(c2ccccc2)OC(N)=Nc2ccc(Cl)cc21 (stereo not drawn) [desethyl-etifoxine, 2-amino-6-chloro-4-methyl-4-phenyl-4H-[3,1]benzoxazine]	do not modify this parameter significantly	−0.09	does not disrupt the weight gain		Variation in percentage [1]: +0.39%
CCNC1=Nc2ccc(Cl)cc2C(C)(c2ccccc2)O1.Cl (stereo not drawn) [etifoxine, 6-chloro-2-ethylamino-4-methyl-4-phenyl-4H-[3,1]benzoxazine hydrochloride]	do not modify this parameter significantly	−0.30	does not disrupt weight gain		Variation in percentage ([1]; po, 100 mg/kg/day): −0.07%; Body weight in grams (mean ± s.e.m.) [2]: 251 ± 4 grams
CC[C@]12CCCN3CCc4c(n(c5ccccc45)[C@@](O)(C(=O)OC)C1)[C@@H]32 [vincamine]				active	
(−)eburnamonine				active	
dihydroergotoxin				active	
